In patent US20240299393A1, “SMALL MOLECULE DISRUPTORS OF PROTEIN INTERACTIONS IN HISTONE DEACETYLASE COMPLEXES” (Dana-Farber Cancer Institute, Inc., priority 2021, published 2024):

Tests used:
[1] = system: Rpd3-regulated genes (URS-URA3, INO1, IME2, CAR1, SPO13, TRK2); assay: RT-qPCR of Rpd3-regulated genes in yeast; type: cell-based, S. cerevisiae; conditions: for derepression of URS-URA3 in deletion strains: rpd3Δ, sin3Δ, ume6Δ, sin3Δ/ume6Δ
Description: After yeast cells reached OD600 nm ˜0.5 in 0.8-1 mL of YPD, they were grown for two more hours at room temperature before being centrifuged to remove supernatant and freezing pellets on dry ice. For compound treatments, yeast cells at OD600 nm˜0.5 in YPD were incubated at room temperature for two hours with DMSO (1-1.6%) or the desired compound (from 25 mM stock in 100% DMSO) in an 2 mL-tube for a final volume of 0.8 mL in YPD, before being centrifuged, washed and frozen as described above. Yeast cells were then harvested for RNA extraction using a RiboPure RNA Purification Kit (Invitrogen, cat #AM1926), which involves mechanical cell wall disruption, phenol extraction of the lysate, and RNA purification using glass fiber, and filter-based RNA purification columns. RNA concentration was measured for individually purified RNA samples using a NanoDrop spectrophotometer. A total of 1 μg RNA from each sample was used for reverse transcription following a published procedure [Choi, S. G. et al 2012].
The RT-qPCR protocol used in this study was described elsewhere [Choi et al 2012]. Culture, RNA extraction, and compound treatments for neuroblastoma SK-N-BE(2)-C cells are described below. Approximately 1 μg RNA per sample was used for reverse transcription. Using a thermocycler, RNA was denatured in the presence of 0.2 μg 18 mer oligo-dT by heating the plate at 65° C. for 10 min. The plate was then immediately cooled down on ice to anneal oligo-dT on the poly-A tail of mRNA. A master mix of AffinityScript Multiple Temperature Reverses Transcriptase (Agilent, cat #600107) was prepared following the manufacturer's protocol, and mixed with RNA samples previously annealed with the oligo-dT. The plate was incubated at 42° C. for 2 h to generate cDNAs from mRNA templates. The reverse transcriptase was then denatured by heating the plate at 70° C. for 15 min. The resulting cDNA was diluted (1:20) in sterile, ultra pure water (ddH2O), and stored at −20° C. until used for qPCR. To measure gene expression, the diluted cDNA was mixed with 5 μL PowerUp SYBR Green master mix (Applied Biosystems, cat #A25743), and the mix of primers (forward+reverse, see FIG. 31; 0.3 μM final concentration) for a total volume of 10 μL. Two technical replicates were generated per cDNA sample in the 384-well PCR plate (Applied Biosystems, cat #4343370). The plate was tightly sealed with optical adhesive film (Applied Biosystems, cat #4311971). Quantitative PCR was conducted with a QuantStudio real-time PCR system from Applied Biosystems, with the following settings: 50° C./2 min, 95° C./10 min, 96° C./15 s/40 cycles, and 60° C./30 s. Dissociation curves were checked for each PCR product, to assess the specificity of the PCR amplicons.
Expression of gene X normalized to the control gene expression=k*1.96^(Ct^Control^−Ct^Test^) • where k is an arbitrary multiplier (k=1000 in this study), 1.96 is the PCR amplification efficiency constant, Ct is the cycle threshold, CtControl is the Ct value for the housekeeping gene used as control (UBC6 in yeast [Teste et al 2009]; RPS11 in human cells [Zhan et al 2014], and CtTest is the Ct value for the tested gene. Replicates corresponding to DMSO treatments or WT yeast cells were averaged and other data points normalized using those DMSO or WT values as references (i.e. expression relative to DMSO or WT). TAF10 in yeast or SNRPD3 in human cells were used as genes not known for being regulated by an HDAC complex (HDAC-unrelated genes).

[2] = system: human neuroblastoma SK-N-BE(2)-C cells; assay: Single-cell RNA-seq in neuroblastoma cells; type: cell-based; conditions: 1 μM TSA, 25 μM E6R, 16 h
Description: Cells were grown in DMEM media supplemented with 10% FBS+PS in a 5% CO2 incubator at 37° C. […] Cells were harvested by incubating them in TryplE for 10 min. Cells were spun down for 5 min at 300 g, and the supernatant was removed. Cells were counted via hemocytometer to 20,000 cells and resuspended in 200 μL of media.
High-throughput scRNA-seq was performed using the Seq-Well S^3 platform as previously described [Gierahn et al 2017, Hughes et al 2020]. Briefly, 20,000 cells were applied to the surface of each Seq-Well array which had been preloaded with uniquely barcoded poly(dT) mRNA capture beads (Chemgenes). Following cell loading, arrays were washed with RPMI and then sealed with a polycarbonate membrane and placed in a 37° C. incubator for 30 min. After membrane sealing, the arrays were submerged in a lysis buffer (5 M guanidine thiocyanate, 10 mM EDTA, 0.1% β-mercaptoethanol, 0.1% Sarkosyl) for 20 min, and subsequently incubated in a 2 M NaCl hybridization buffer for 40 min to promote hybridization of the mRNA to the bead-bound capture oligos. Next, the beads were removed from the arrays, and they were resuspended in a master mix for reverse transcription containing Maxima H Minus Reverse Transcriptase and buffer, dNTPs, RNase inhibitor, a template switch oligonucleotide, and PEG for 30 min at room temperature, and overnight at 52° C. with end-over-end rotation. […] Then, the eluted products were quantified using a Qubit. cDNA libraries were then created using Illumina Nextera XT DNA Library Preparation Kit. Library cleanup was performed using SPRI purification as described above and library concentration and size distribution was determined using a Qubit fluorometer and Agilent TapeStation. Libraries for each sample were sequenced on a NextSeq 500 and a Nextseq 2000 with the following read structures: read 1: 21 bp; read 2: 50 bp; and index 1: 8 bp, and read 1: 26 bp; read 2: 50 bp; and index 1: 8 bp respectively. For each library 21 bases were sequenced in read 1, containing the cell barcode (12 bp) information and a unique molecular identifier (UMII, 8 bp), whereas 50 bases were obtained for the read 2 sequence. After sequencing, reads were demultiplexed using Illumina bcl2fastq (v2.20.0.422) and the resulting FASTQs were concatenated and aligned to the human “GRCh38-2020-A” reference genome using StarSolo alignment pipeline (v2.7.9a) on Terra.
Subsequently, low quality cells were filtered out, including cells with fewer than 200 unique genes, greater than 9,000 unique genes, and greater than 40% mitochondrial reads, resulting in 46,751 cells and 25,468 genes. […] Differentially expressed genes were determined using the FindMarkers function on Seurat with “test.use=MAST” and default parameters. […]

| SMILES | expression at URS-URA3 compared to E6S ([1]; different doses) | genes also downregulated by scRNA-seq, among 22 downregulated in bulk RNA-seq [2] [genes] | genes also upregulated in scRNA-seq, among 65 upregulated in bulk RNA-seq [2] [genes] | effect on CAR1 and SPO13 expression ([1]; 250 μM) | effect on all Rpd3-regulated loci ([1]; FIG. 3I) | derepression of URS-URA3 in deletion strains ([1]; 250 μM) | increase of INO1 expression ([1]; 250 μM, relative to DMSO) [fold] |
| --- | --- | --- | --- | --- | --- | --- | --- |
| C[C@@H](NC(=O)c1c(O)n2ccccc2nc1=O)c1ccccc1 [E6R, 4-hydroxy-2-oxo-N—((R)-1-phenylethyl)-3,4-dihydro-2H-pyrido[, 2-a]pyrimidine-3-carboxamide] | stronger induction of expression at URS-URA3 | 5 | 22 |  |  |  |  |
| CC(/C=C/C(=O)NO)=C\[C@@H](C)C(=O)c1ccc(N(C)C)cc1 [TSA, trichostatin A] |  | 13 | 43 | consistently derepressed | activated all Rpd3-regulated loci | no effect |  |
| CC(NC(=O)c1c(O)n2ccccc2nc1=O)c1ccccc1 (racemic) [E6] |  |  |  |  |  | drastically decreased | ~150 |
